Measured values taken from patent US10421778B2, “Isoform-selective lysine deacetylase inhibitors” (WASHINGTON UNIVERSITY, priority 2015, dated 2019).
Marks after values point to notes of the source that are not given here. Positions of bridges follow the written chain, without caps; N, C: chain ends. Non-standard residues stand in square brackets, D forms with d. Residues, ends and D or L forms follow the SMILES beside them.

Columns and labels:
Experiment in all cases: KDAC inhibition assay, Caliper EZ Reader II
Assay type in all cases: biochemical
recombinant human KDAC3 = target: T1, recombinant human KDAC3 (Homo sapiens, UniProt O15379); conditions: for KDAC Inhibition Activity KDAC3 (% inhibition): % inhibition at 30 μM
T1 construct: purchased BPS Bioscience

recombinant human KDAC8 = target: T2, recombinant human KDAC8 (Homo sapiens, UniProt Q9BY41); conditions: % inhibition at 30 μM
T2 construct: purchased BPS Bioscience
T2 sequence (Q9BY41 1-377): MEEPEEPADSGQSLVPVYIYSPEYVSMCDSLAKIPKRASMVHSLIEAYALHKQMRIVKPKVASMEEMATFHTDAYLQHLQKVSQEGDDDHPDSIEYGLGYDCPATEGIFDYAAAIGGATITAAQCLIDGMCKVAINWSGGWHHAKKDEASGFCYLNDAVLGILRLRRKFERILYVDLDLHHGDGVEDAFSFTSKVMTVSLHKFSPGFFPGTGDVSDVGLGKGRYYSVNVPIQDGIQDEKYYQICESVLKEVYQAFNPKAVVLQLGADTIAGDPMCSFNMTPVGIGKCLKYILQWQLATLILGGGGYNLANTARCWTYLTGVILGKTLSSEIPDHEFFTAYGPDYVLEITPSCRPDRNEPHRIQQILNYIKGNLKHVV

recombinant human KDAC6 = target: T3, recombinant human KDAC6 (Homo sapiens, UniProt Q9UBN7); conditions: % inhibition at 30 μM
T3 construct: purchased BPS Bioscience
T3 sequence (Q9UBN7 1-1215): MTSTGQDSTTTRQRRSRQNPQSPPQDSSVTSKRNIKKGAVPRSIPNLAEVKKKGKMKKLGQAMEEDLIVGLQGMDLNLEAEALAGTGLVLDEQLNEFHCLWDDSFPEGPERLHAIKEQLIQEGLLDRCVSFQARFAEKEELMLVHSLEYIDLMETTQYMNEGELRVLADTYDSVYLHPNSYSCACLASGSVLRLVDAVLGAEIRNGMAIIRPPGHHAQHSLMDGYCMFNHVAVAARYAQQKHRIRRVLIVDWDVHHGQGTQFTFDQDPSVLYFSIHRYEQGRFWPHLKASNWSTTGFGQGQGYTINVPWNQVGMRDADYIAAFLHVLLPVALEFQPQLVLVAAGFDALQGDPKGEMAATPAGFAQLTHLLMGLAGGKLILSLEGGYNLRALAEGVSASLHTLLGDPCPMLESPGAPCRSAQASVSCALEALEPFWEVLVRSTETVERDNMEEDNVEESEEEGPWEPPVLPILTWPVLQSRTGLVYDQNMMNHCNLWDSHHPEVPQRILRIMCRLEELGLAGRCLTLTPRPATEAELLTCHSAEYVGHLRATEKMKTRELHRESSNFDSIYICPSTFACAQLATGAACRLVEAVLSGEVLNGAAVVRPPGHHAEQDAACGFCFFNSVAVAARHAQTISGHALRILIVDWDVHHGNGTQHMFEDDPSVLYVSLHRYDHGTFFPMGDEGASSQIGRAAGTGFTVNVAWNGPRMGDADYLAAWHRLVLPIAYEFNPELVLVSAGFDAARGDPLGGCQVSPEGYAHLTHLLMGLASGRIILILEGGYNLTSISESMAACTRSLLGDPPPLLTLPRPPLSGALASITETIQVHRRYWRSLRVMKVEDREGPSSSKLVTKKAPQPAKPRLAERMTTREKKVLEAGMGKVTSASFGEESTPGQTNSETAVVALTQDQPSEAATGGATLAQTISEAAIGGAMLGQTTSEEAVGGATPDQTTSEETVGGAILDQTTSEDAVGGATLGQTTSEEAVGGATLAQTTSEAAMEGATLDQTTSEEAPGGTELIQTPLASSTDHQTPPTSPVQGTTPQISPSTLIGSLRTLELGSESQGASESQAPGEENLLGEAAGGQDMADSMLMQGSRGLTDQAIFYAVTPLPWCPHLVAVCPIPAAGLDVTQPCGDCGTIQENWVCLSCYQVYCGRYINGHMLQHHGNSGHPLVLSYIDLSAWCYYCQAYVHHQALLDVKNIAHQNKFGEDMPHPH

recombinant human KDAC1 = target: T4, recombinant human KDAC1 (Homo sapiens, UniProt Q13547); conditions: for KDAC Inhibition Activity KDAC1 (% inhibition): % inhibition at 30 μM
T4 construct: purchased BPS Bioscience
T4 sequence (Q13547 whole entry): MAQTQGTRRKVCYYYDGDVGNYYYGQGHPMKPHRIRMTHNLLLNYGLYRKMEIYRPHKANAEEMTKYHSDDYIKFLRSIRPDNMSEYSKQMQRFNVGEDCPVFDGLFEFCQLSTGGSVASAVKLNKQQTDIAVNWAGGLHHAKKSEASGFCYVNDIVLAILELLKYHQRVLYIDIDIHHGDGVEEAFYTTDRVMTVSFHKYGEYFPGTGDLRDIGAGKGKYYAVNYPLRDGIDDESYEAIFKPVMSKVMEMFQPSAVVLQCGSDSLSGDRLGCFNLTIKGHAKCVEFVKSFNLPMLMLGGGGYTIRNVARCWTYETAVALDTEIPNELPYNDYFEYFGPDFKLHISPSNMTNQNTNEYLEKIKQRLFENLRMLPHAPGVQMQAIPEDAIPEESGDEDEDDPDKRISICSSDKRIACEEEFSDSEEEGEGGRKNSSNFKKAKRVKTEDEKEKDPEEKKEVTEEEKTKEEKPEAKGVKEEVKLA

T1 sequence (O15379 whole entry): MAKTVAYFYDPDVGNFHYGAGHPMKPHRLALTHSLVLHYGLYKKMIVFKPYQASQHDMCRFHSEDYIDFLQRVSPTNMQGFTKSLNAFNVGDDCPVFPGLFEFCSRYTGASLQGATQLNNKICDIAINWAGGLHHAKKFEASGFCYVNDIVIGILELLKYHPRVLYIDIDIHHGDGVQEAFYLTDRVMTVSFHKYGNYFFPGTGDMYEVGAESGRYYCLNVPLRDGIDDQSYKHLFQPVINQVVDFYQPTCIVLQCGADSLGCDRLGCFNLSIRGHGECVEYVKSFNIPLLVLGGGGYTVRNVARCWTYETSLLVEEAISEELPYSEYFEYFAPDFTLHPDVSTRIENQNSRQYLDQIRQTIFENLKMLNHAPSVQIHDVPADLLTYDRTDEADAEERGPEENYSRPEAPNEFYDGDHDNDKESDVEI
T1 sequence (Q9Y618 395-489 partner limits assumed): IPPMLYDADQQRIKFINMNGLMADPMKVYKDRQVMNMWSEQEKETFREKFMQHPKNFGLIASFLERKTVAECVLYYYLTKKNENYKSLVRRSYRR

Compound | KDAC Inhibition Activity KDAC3 (% inhibition) (recombinant human KDAC3) | KDAC Inhibition Activity KDAC8 (% inhibition) (recombinant human KDAC8) | KDAC Inhibition Activity KDAC6 (% inhibition) (recombinant human KDAC6) | KDAC Inhibition Activity KDAC1 (% inhibition) (recombinant human KDAC1) | inhibition at 30 µM (recombinant human KDAC1) | inhibition at 30 µM (recombinant human KDAC3) | IC50 (recombinant human KDAC1; 10-point dose curve from 30 μM) | IC50 (recombinant human KDAC3; 10-point dose curve from 30 μM, read-out: KDAC Inhibition Activity (IC50) KDAC3)
[Cyclo-Asp(^DPro-Pro-Val)-NHCH2CH2S]2 [Compound 35a] | 2% | – | – | – | – | – | – | –
Cyclo-^DAsp(^DPro-Pro-Val)-OBn [Compound 1b] | 10% | 9% | 8% | 7% | – | – | – | –
Cyclo-Asp(Pro-^DPro-Val)-NHCH2CH2CH2SCH3 [Compound 19a] | Not active | 25% | Not active | 2% | – | – | – | –
[Cyclo-DAsp(Pro-DPro-Val)-NHCH2CH2S]2 [Compound 36b] | – | 2% | 4% | – | – | – | – | –
Cyclo-Asp(Pro-^DPro-Val)-NHCH2CH2SH [Compound 17a] | 2% | 5% | 15% | Not active | – | – | – | –
Cyclo-Asp(Pro-^DPro-Val)-NHCH2CH2CH2OH [Compound 22a] | 7% | Not active | Not active | Not active | – | – | – | –
Cyclo-^DAsp(^DPro-Pro-Val)-NHCH2CH2S—SCH2CH2NHP(O)(OPh) [Compound 11b] | 4% | 10% | 16% | Not active | – | – | – | –
Cyclo-^DAsp(Pro-^DPro-Val)-NHCH2CH2CH2OH [Compound 22b] | 5% | 12% | Not active | Not active | – | – | – | –
Cyclo-^DAsp(Pro-^DPro-Val)-NHCH2CH2CH2COOMe [Compound 23b] | Not active | 7% | 5% | 1% | – | – | – | –
Cyclo-Asp(^DPro-Pro-Val)-NHCH2CH2CH2S(═O)CH3 [Compound 8a] | Not active | 30% | Not active | Not active | – | – | – | –
Cyclo-^DAsp(^DPro-Pro-Val)-NHCH2CH2CH2COOMe [Compound 12b] | Not active | Not active | Not active | 5% | – | – | – | –
Cyclo-^DAsp(Pro-^DPro-Val)-NHCH2CH2CH2COOH [Compound 24b] | 9% | 38% | Not active | Not active | – | – | – | –
Cyclo-^DAsp(^DPro-Pro-Val)-NHCH2CH2CH2COOH [Compound 13b] | Not active | Not active | Not active | 2.5% | – | – | – | –
Cyclo-Asp(^DPro-Pro-Val)-NHCH2CH2CH2NH2 [Compound 16a] | 14%^a | 22%^a | 2%^a | Not active | – | – | – | –
[Cyclo-^DAsp(Pro-^DPro-Val)-NHCH2CH2CH2S]2 [Compound 38b] | 19% | 3% | 40% | – | – | – | – | –
Cyclo-^DAsp(Pro-^DPro-Val)-NHCH2CH2CH2S(═O)2CH3 [Compound 21b] | Not active | 8% | 12% | Not active | – | – | – | –

Compound | KDAC Inhibition Activity KDAC3 (% inhibition) (recombinant human KDAC3) | KDAC Inhibition Activity KDAC8 (% inhibition) (recombinant human KDAC8) | KDAC Inhibition Activity KDAC6 (% inhibition) (recombinant human KDAC6) | KDAC Inhibition Activity KDAC1 (% inhibition) (recombinant human KDAC1) | inhibition at 30 µM (recombinant human KDAC1) | inhibition at 30 µM (recombinant human KDAC3) | IC50 (recombinant human KDAC1; 10-point dose curve from 30 μM) | IC50 (recombinant human KDAC3; 10-point dose curve from 30 μM, read-out: KDAC Inhibition Activity (IC50) KDAC3)
Cyclo-Asp(^DPro-Pro-Val)-NHCH2CH2S—SCH2CH2NHP(O)(OPh) [Compound 11a] | 10% | 31% | Not active | 2.5% | – | – | – | –
Cyclo-Asp(Pro-^DPro-Val)-NHCH2CH2CH2COOMe [Compound 23a] | 7% | Not active | Not active | Not active | – | – | – | –
Cyclo-Asp(Pro-^DPro-Val)-NHCH2CH2CH2SH [Compound 18a] | 1% | 4% | 19% | Not active | – | – | – | –
[Cyclo-Asp(Pro-^DPro-Val)-NHCH2CH2CH2S]2 [Compound 38a] | 10% | – | 21% | – | – | – | – | –
[Cyclo-^DAsp(^DPro-Pro-Val)-NHCH2CH2S]2 [Compound 35b] | – | 9% | 6% | – | – | – | – | –
Cyclo-Asp(Pro-^DPro-Val)-OBn [Compound 2a] | – | 14% | – | – | – | – | – | –
[Cyclo-^DAsp(^DPro-Pro-Val)-NHCH2CH2CH2S]2 [Compound 37b] | 53% | – | 8% | 1% | – | – | – | –
CC(C)[C@@H]1NC(=O)[C@@H]2CCCN2C(=O)[C@H]2CCCN2C(=O)C[C@H](C(=O)O)NC1=O [Compound 3b, Cyclo-^DAsp(^DPro-Pro-Val)-OH] ([dP]PV[dD]-OH; lactam N-4) | – | – | – | – | 2.5% | 3% | – | –
CC(C)[C@@H]1NC(=O)[C@@H]2CCCN2C(=O)[C@H]2CCCN2C(=O)C[C@@H](C(=O)O)NC1=O [Compound 3a, Cyclo-Asp(^DPro-Pro-Val)-OH] ([dP]PVD-OH; lactam N-4) | – | – | – | – | – | 1% | – | –
[Cyclo-Asp(Pro-^DPro-Val)-NHCH2CH2S]2 [Compound 36a] | – | 2% | – | – | – | – | – | –
Cyclo-Asp(Pro-^DPro-Val)-OH [Compound 4a] | 24% | – | – | – | – | – | – | –
Cyclo-^DAsp(Pro-^DPro-Val)-OBn [Compound 2b] | 1% | – | 10% | 1.5% | – | – | – | –
Nc1ccccc1NC(=O)c1ccc(-c2cn(CCc3ccsc3)nn2)cc1 [Compound T247, N-(2-Aminophenyl)-4-[1-(2-thiophen-3-ylethyl)-1H-[1,2,3]triazol-4-yl]benzamide, reference compound] | – | – | – | – | – | – | 1110 nM | 3940 nM
[Cyclo-Asp(^DPro-Pro-Val)-NHCH2CH2CH2S]2 [Compound 37a] | – | 6% | 9% | – | – | – | – | –
Cyclo-DAsp(Pro-DPro-Val)-OH [Compound 4b] | 5% | 4% | 10% | – | – | – | – | –
Cyclo-Asp(^DPro-Pro-Val)-OBn [Compound 1a] | – | 9% | 6% | – | – | – | – | –
